Literature values, collected in patent US9782610B2, “Nontoxic, non-endocrine disrupting, cytoprotective, UV-radiation resistant sunblock compositions” (3rd Rock Sunblock, Inc., priority 2007, dated 2017).

How the values were obtained:
estrogenic activity = details: uterine wet weight, cell height, cell proliferation assays

Row | SMILES | activity in cells / cancer cell growth (cancer cells) | estrogenicity (estrogenic activity)
1 | CC1CC(OC(=O)c2ccccc2O)CC(C)(C)C1 (stereo not drawn) [homosalate] | made cancer cells grow more rapidly | 
2 | Cc1ccc(C=C2C(=O)C3(C)CCC2C3(C)C)cc1 (stereo not drawn) [Example 4-MBC, 3-(4-methylbenxylidene) camphor] | made cancer cells grow more rapidly | highly estrogenic
3 | CCCCC(CC)COC(=O)c1ccc(N(C)C)cc1 (stereo not drawn) [octyl-dimethyl-PABA] | made cancer cells grow more rapidly | 
4 | COc1ccc(C(=O)c2ccccc2)c(O)c1 [Benzophenone-3] | made cancer cells grow more rapidly | highly estrogenic
